Key:
C. glabrata = assay: antifungal activity against C. glabrata; format: cell-based
E. coli UB1005 C498 = assay: MIC by microtitre broth dilution; format: cell-based; conditions: Mueller Hinton broth, 37° C., 24 h, aerobic
Description: (§1) MIC assays were conducted essentially as described by Amsterdam, D. 1996, “Susceptibility testing of antimicrobials in liquid media”, p. 52-111, in Loman, V., ed. Antibiotics in laboratory medicine, 4th ed. Williams and Wilkins, Baltimore, Md.

[1] = tested on: K. pneumoniae ATCC13883 C238; assay: MIC by microtitre broth dilution; format: cell-based; conditions: Mueller Hinton broth, 37° C., 24 h, aerobic
Description: as §1

[2] = tested on: P. aeruginosa PAE/K799 H187; assay: MIC by microtitre broth dilution; format: cell-based; conditions: Mueller Hinton broth, 37° C., 24 h, aerobic
Description: as §1

S. aureus ATCC25923 C622 = assay: MIC by microtitre broth dilution; format: cell-based; conditions: Mueller Hinton broth, 37° C., 24 h, aerobic
Description: as §1

S. epidermidis C621 = assay: MIC by microtitre broth dilution; format: cell-based; conditions: Mueller Hinton broth, 37° C., 24 h, aerobic
Description: as §1

S. pyogenes C721 = assay: MIC by microtitre broth dilution; format: cell-based; conditions: Todd Hewitt broth, 37° C., 24 h, aerobic
Description: as §1

[3] = potentiation of immunosuppressive agents
[4] = cited from earlier work; for solubility in alcohol / ethanol: alcohol or ethanol
glucocorticoid receptor = target: T1, glucocorticoid receptor (Homo sapiens, UniProt P04150); assay: glucocorticoid receptor trafficking (mechanism study); format: cell-based
T1 construct: host or cells: T cells are named only for the GRE reporter experiment in the same sentence
T1 sequence (P04150 whole entry, species assumed): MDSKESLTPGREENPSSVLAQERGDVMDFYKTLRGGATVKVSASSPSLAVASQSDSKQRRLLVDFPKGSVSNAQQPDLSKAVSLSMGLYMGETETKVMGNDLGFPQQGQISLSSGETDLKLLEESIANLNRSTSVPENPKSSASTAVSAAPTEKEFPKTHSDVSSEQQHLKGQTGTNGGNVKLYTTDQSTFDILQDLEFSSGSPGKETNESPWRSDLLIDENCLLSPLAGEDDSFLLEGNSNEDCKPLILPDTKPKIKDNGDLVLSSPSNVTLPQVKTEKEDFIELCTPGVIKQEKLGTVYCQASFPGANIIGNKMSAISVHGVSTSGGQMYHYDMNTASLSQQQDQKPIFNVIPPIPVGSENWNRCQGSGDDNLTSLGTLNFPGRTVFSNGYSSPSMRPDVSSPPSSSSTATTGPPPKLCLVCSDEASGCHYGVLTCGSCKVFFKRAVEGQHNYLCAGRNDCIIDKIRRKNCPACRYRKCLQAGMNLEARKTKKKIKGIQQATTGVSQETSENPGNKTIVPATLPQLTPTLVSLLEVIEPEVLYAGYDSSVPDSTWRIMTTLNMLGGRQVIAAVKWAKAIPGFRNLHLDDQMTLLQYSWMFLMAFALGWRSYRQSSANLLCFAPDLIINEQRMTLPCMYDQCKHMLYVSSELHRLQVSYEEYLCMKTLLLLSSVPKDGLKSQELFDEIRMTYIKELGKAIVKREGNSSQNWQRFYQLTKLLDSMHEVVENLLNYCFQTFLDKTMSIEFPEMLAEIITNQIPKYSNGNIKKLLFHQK

GRE reporter plasmid = assay: transactivation of a transfected GRE reporter plasmid in T cells; format: cell-based
NFAT = NFAT activation, translocation and transactivation; format: cell-based
NFkB and AP1 = NFkB and AP1 activation; format: cell-based
p38 and JNK = p38 and JNK activation; format: cell-based
ERK = ERK activation; format: cell-based
TNF-α = assay: acute in vivo model of inflammation (LPS-induced TNF-α production); conditions: amoxapine alone or reduced dose prednisolone alone
[5] = chronic in vivo arthritis model (adjuvant model), joint swelling; conditions: amoxapine alone or reduced dose prednisolone alone
[6] = tested on: carrageenan-induced paw edema; assay: Rat carrageenan-induced paw edema model, paw swelling; format: in vivo; conditions: amoxapine alone at 2.26 mg/kg
Description: A dose-range finding study was performed to determine the anti-inflammatory activity of various ratios of methyl prednisolone acetate and amoxapine in a rat carrageenan-induced paw edema model. […] The molar ratio of methyl prednisolone acetate to amoxapine ranged from 1:1 to 1:300, using total doses of methyl prednisolone acetate of 0.01, 0.03 or 0.1 mg/kg.
The test agent (a combination of methyl prednisolone acetate and amoxapine), vehicle control, or reference agents (methyl prednisolone acetate, amoxapine, or Depo-Medrol®) were administered in the left hind foot pad of rats. After 60 minutes, paw edema was induced by injection of 100 μl of 1% carrageenan in the same foot pad. The paw volume was measured with a water displacement plethysmometer immediately prior to test agent injection (T-1h), at the time of carrageenan injection (T0h), and at T6h. Animals were euthanized by carbon dioxide inhalation. Paw tissue samples were collected and flash frozen in liquid nitrogen. Samples were assayed for TNF-α by enzyme-linked immunoassay (ELISA).

[7] = target: protein tyrosine phosphatase 1B (PTP1B) (Homo sapiens, UniProt P18031); conditions: cited from earlier work
protein tyrosine phosphatase 1B (PTP1B), sequence (P18031 whole entry): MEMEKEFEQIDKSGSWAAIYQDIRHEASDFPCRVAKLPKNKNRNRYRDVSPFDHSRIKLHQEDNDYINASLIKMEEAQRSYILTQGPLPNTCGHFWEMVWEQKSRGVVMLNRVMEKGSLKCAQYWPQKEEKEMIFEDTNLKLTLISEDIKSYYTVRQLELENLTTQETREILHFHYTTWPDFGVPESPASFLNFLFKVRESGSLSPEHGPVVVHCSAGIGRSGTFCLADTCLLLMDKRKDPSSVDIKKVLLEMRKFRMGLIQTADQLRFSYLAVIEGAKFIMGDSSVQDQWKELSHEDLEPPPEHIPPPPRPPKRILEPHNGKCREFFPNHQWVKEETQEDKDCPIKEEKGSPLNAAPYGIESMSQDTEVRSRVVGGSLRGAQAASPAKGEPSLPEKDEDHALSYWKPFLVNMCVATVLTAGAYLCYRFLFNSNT

[8] = tested on: phosphatases of regenerating liver (PRL); conditions: cited from earlier work
endo-exonuclease = conditions: cited from earlier work

| Compound | Minimum inhibitory concentration, E. coli UB1005 C498 wt Gram− (E. coli UB1005 C498) | Minimum inhibitory concentration, K. pneumoniae ATCC13883 C238 wt Gram− [1] | Minimum inhibitory concentration, P. aeruginosa PAE/K799 H187 Wt Gram− [2] | Minimum inhibitory concentration, S. aureus ATCC25923 C622 wt Gram+ (S. aureus ATCC25923 C622) | Minimum inhibitory concentration, S. epidermidis C621 wt Gram+ (S. epidermidis C621) | Minimum inhibitory concentration, S. pyogenes C721 wt Gram+ (S. pyogenes C721) | other results |
| --- | --- | --- | --- | --- | --- | --- | --- |
| CCC(C)n1ncn(-c2ccc(N3CCN(c4ccc(OC[C@H]5CO[C@](Cn6cncn6)(c6ccc(Cl)cc6Cl)O5)cc4)CC3)cc2)c1=O (mixture of isomers) [itraconazole] |  |  |  |  |  |  | enhancement of antifungal activity by a manganese compound (C. glabrata): enhances |
| Sc1ncc2[nH]cnc2n1 [2-mercaptopurine] | N | N | N | N | N | N |  |
| O=c1[nH]cc(F)c(=O)[nH]1 [5-fluorouracil] | 10^−6 Molar | 10^−6 Molar | 10^−5 Molar | 10^−7 Molar | 10^−7 Molar | 10^−4 Molar |  |
| Sc1ncnc2nc[nH]c12 [6-mercaptopurine] | N | N | N | N | N | N |  |
| Nc1ccn([C@@H]2O[C@H](CO)[C@@H](O)[C@@H]2O)c(=O)n1 [Cytarabine, cytarabine] | N | N | N | N | N | N |  |
| CCN(CC)C(C)CN1c2ccccc2Sc2ccccc21 (centres unmarked) [Ethopropazine, ethopropazine] |  |  |  |  |  |  | effect on potency of an immunosuppressive agent (e.g. cyclosporine) [3]: increases the potency |
| CN(C)C(=O)C(CCN1CCC(O)(c2ccc(Cl)cc2)CC1)(c1ccccc1)c1ccccc1 [Loperamide] |  |  |  |  |  |  | effect on potency of an immunosuppressive agent (e.g. cyclosporine) [3]: increase the potency |
| Nc1ccc(/N=N/c2ccccc2)c(N)n1 [Phenazopyridine, phenazopyridine] |  |  |  |  |  |  | solubility in alcohol / ethanol [4]: slightly soluble in water and alcohol; solubility in water ([4]; water): slightly soluble in water and alcohol |
| NC(=O)c1ncn([C@@H]2O[C@H](CO)[C@@H](O)[C@H]2O)n1 [Ribavirin, ribavirin] |  |  |  |  |  |  | solubility in alcohol / ethanol [4]: only slightly soluble |
| Clc1ccc2c(c1)C(N1CCNCC1)=Nc1ccccc1O2 [amoxapine] |  |  |  |  |  |  | promotion of glucocorticoid receptor trafficking (glucocorticoid receptor): does not promote; potentiation of prednisolone's ability to transactivate a GRE reporter plasmid (GRE reporter plasmid): does not potentiate; effect on NFAT activation, translocation and transactivation (NFAT): block; effect on NFkB and AP1 activation (NFkB and AP1): partially inhibits; effect on p38 and JNK activation (p38 and JNK): Inhibition; effect on ERK activation (ERK): unaffected; benefit of the single agent (TNF-α): modest or no benefit; benefit of the single agent [5]: modest or no benefit; paw edema compared with vehicle treatment, in words [6]: not significantly different from the vehicle treatment |
| CC[C@@]1(O)C(=O)OCc2c1cc1n(c2=O)Cc2cc3ccccc3nc2-1 [camptothecin] | N | N | N | N | 10^−4 Molar | N |  |
| CC[C@H](C)C[C@H](C)CCCCCCCCC(=O)N[C@H]1C[C@@H](O)[C@@H](NCCN)NC(=O)[C@@H]2[C@@H](O)CCN2C(=O)[C@H]([C@H](O)CCN)NC(=O)[C@H]([C@H](O)[C@@H](O)c2ccc(O)cc2)NC(=O)[C@@H]2C[C@@H](O)CN2C(=O)[C@H]([C@@H](C)O)NC1=O [caspofungin] |  |  |  |  |  |  | enhancement of antifungal activity by a manganese compound (C. glabrata): enhances |
| N.N.[Cl][Pt][Cl] [cisplatin] | N | N | 10^−4 Molar | N | N | N |  |
| COc1cccc2c1C(=O)c1c(O)c3c(c(O)c1C2=O)C[C@@](O)(C(=O)CO)C[C@@H]3O[C@H]1C[C@H](N)[C@H](O)[C@H](C)O1 [doxorubicin] | 10^−4 Molar | 10^−6 Molar | 10^−5 Molar | 10^−5 Molar | 10^−6 Molar | 10^−7 Molar |  |
| COc1cc([C@@H]2c3cc4c(cc3[C@@H](O[C@@H]3O[C@@H]5CO[C@@H](C)O[C@H]5[C@H](O)[C@H]3O)[C@H]3COC(=O)[C@H]23)OCO4)cc(OC)c1O [etoposide] | N | 10^−5 Molar | N | 10^−5 Molar | 10^−6 Molar | 10^−5 Molar |  |
| OC(Cn1cncn1)(Cn1cncn1)c1ccc(F)cc1F [fluconazole] |  |  |  |  |  |  | enhancement of antifungal activity by a manganese compound (C. glabrata): enhances |
| NC(=O)NO [hydroxyurea] | N | N | 10^−4 Molar | N | N | 10^−4 Molar |  |
| CNCCCC12CCC(c3ccccc31)c1ccccc12 [maprotiline] |  |  |  |  |  |  | effect on potency of an immunosuppressive agent (e.g. cyclosporine) [3]: increases the potency |
| CN(Cc1cnc2nc(N)nc(N)c2n1)c1ccc(C(=O)N[C@@H](CCC(=O)O)C(=O)O)cc1 [methotrexate] | N | 10^−6 Molar | N | 10^−5 Molar | N | 10^−6 Molar |  |
| O=C1c2c(O)ccc(O)c2C(=O)c2c(NCCNCCO)ccc(NCCNCCO)c21 [mitoxantrone] | 10^−5 Molar | 10^−6 Molar | 10^−5 Molar | 10^−5 Molar | 10^−5 Molar | 10^−6 Molar |  |
| N=C(N)c1ccc(OCCCCCOc2ccc(C(=N)N)cc2)cc1 [pentamidine] |  |  |  |  |  |  | inhibition of PTP1B [7]: effective inhibitor; inhibition of oncogenic phosphatases of regenerating liver (PRL) [8]: potent inhibitor; inhibition of endo-exonuclease activity (endo-exonuclease): inhibit |
| CN(C/C=C/C#CC(C)(C)C)Cc1cccc2ccccc12.Cl [terbinafine] |  |  |  |  |  |  | enhancement of antifungal activity by a manganese compound (C. glabrata): enhances |
| Oc1cc(Cl)ccc1Oc1ccc(Cl)cc1Cl [triclosan] |  |  |  |  |  |  | effect on potency of an immunosuppressive agent (e.g. cyclosporine) [3]: increases the potency |
| Nc1ncnc2c1ccn2[C@@H]1O[C@H](CO)[C@@H](O)[C@H]1O [tubercidin] | N | N | N | N | N | N |  |
